Results reported in ChEMBL document CHEMBL1909046, “DrugMatrix in vitro pharmacology data”.

Target: Sodium-dependent noradrenaline transporter (Homo sapiens, UniProt P23975)
Experiment: DRUGMATRIX: Norepinephrine Transporter radioligand binding (ligand: [125I] RTI-55)
Assay type: cell membranes, MDCK, Membrane
Settings: mdck; Not Active = under 50% inhibition at 10 µM

Sodium-dependent noradrenaline transporter, sequence (P23975 whole entry): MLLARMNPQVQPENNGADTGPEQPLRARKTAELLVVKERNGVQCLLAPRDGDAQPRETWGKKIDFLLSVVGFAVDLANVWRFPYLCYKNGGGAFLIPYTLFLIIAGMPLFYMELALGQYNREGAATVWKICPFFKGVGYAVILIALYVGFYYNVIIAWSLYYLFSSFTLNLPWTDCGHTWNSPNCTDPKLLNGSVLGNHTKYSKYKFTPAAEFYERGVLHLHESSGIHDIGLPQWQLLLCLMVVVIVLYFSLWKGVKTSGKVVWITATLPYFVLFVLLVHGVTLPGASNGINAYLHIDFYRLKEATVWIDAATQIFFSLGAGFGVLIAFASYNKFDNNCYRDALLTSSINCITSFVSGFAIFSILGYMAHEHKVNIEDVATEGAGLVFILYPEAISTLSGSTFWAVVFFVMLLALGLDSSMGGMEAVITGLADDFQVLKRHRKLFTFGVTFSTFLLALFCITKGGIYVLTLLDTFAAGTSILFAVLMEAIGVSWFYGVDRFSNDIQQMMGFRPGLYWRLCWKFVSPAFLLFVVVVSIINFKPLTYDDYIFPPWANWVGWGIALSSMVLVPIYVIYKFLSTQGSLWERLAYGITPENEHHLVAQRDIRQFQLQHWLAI

Row | Compound | IC50
1 | CN1C(=O)COc2c(C(=O)NC3CN4CCC3CC4)cc(Cl)cc21 (stereo not given) [AZASETRON] | Not Active
2 | C[C@H]1C[C@H]2[C@@H]3CCC4=CC(=O)C=C[C@]4(C)[C@@]3(Cl)[C@@H](O)C[C@]2(C)[C@@]1(O)C(=O)CO [BECLOMETHASONE] | Not Active
3 | CCOC(=O)[C@H](CCc1ccccc1)N[C@H]1CCc2ccccc2N(CC(=O)O)C1=O [BENAZEPRIL] | Not Active
4 | Nc1c(CC(=O)O)cccc1C(=O)c1ccc(Br)cc1 [BROMFENAC] | Not Active
5 | CCCCN1CCCCC1C(=O)Nc1c(C)cccc1C.Cl (stereo not given) [BUPIVACAINE HYDROCHLORIDE] | Not Active
6 | O=C1CC2(CCCC2)CC(=O)N1CCCCN1CCN(c2ncccn2)CC1 [BUSPIRONE] | Not Active
7 | C[C@@]12C(=O)OC(=O)[C@]1(C)[C@H]1CC[C@@H]2O1 [CANTHARIDIN] | Not Active
8 | O=NN(CCCl)C(=O)NCCCl [CARMUSTINE] | Not Active
9 | CC1=C(C(=O)O)N2C(=O)[C@@H](NC(=O)[C@H](N)c3ccccc3)[C@H]2SC1 [CEPHALEXIN ANHYDROUS] | Not Active

Test system: not listed separately
Experiment: DRUGMATRIX: GABAA, Muscimol, Central radioligand binding (ligand: [3H] Muscimol)
Assay type: cell membranes, Rattus norvegicus, Wistar, Brain, Membrane
Settings: Not Active = under 50% inhibition at 10 µM

Row | Compound | IC50 | Ki
10 | CN1C(=O)COc2c(C(=O)NC3CN4CCC3CC4)cc(Cl)cc21 (stereo not given) [AZASETRON] | Not Active | Not Active
11 | C[C@H]1C[C@H]2[C@@H]3CCC4=CC(=O)C=C[C@]4(C)[C@@]3(Cl)[C@@H](O)C[C@]2(C)[C@@]1(O)C(=O)CO [BECLOMETHASONE] | Not Active | Not Active
12 | CCOC(=O)[C@H](CCc1ccccc1)N[C@H]1CCc2ccccc2N(CC(=O)O)C1=O [BENAZEPRIL] | Not Active | Not Active
13 | Nc1c(CC(=O)O)cccc1C(=O)c1ccc(Br)cc1 [BROMFENAC] | Not Active | Not Active
14 | CCCCN1CCCCC1C(=O)Nc1c(C)cccc1C.Cl (stereo not given) [BUPIVACAINE HYDROCHLORIDE] | Not Active | Not Active
15 | O=C1CC2(CCCC2)CC(=O)N1CCCCN1CCN(c2ncccn2)CC1 [BUSPIRONE] | Not Active | Not Active
16 | C[C@@]12C(=O)OC(=O)[C@]1(C)[C@H]1CC[C@@H]2O1 [CANTHARIDIN] | Not Active | Not Active
17 | O=NN(CCCl)C(=O)NCCCl [CARMUSTINE] | Not Active | Not Active
18 | CC1=C(C(=O)O)N2C(=O)[C@@H](NC(=O)[C@H](N)c3ccccc3)[C@H]2SC1 [CEPHALEXIN ANHYDROUS] | Not Active | Not Active

Test system: not listed separately
Experiment: DRUGMATRIX: Glutamate, NMDA, Agonism radioligand binding (ligand: [3H] CGP-39653)
Assay type: cell membranes, Rattus norvegicus, Wistar, Cerebral cortex, Membrane
Settings: Not Active = under 50% inhibition at 10 µM

Row | Compound | IC50 | Ki
19 | CN1C(=O)COc2c(C(=O)NC3CN4CCC3CC4)cc(Cl)cc21 (stereo not given) [AZASETRON] | Not Active | Not Active
20 | C[C@H]1C[C@H]2[C@@H]3CCC4=CC(=O)C=C[C@]4(C)[C@@]3(Cl)[C@@H](O)C[C@]2(C)[C@@]1(O)C(=O)CO [BECLOMETHASONE] | Not Active | Not Active
21 | CCOC(=O)[C@H](CCc1ccccc1)N[C@H]1CCc2ccccc2N(CC(=O)O)C1=O [BENAZEPRIL] | Not Active | Not Active
22 | Nc1c(CC(=O)O)cccc1C(=O)c1ccc(Br)cc1 [BROMFENAC] | Not Active | Not Active
23 | CCCCN1CCCCC1C(=O)Nc1c(C)cccc1C.Cl (stereo not given) [BUPIVACAINE HYDROCHLORIDE] | Not Active | Not Active
24 | O=C1CC2(CCCC2)CC(=O)N1CCCCN1CCN(c2ncccn2)CC1 [BUSPIRONE] | Not Active | Not Active
25 | C[C@@]12C(=O)OC(=O)[C@]1(C)[C@H]1CC[C@@H]2O1 [CANTHARIDIN] | Not Active | Not Active
26 | O=NN(CCCl)C(=O)NCCCl [CARMUSTINE] | Not Active | Not Active
27 | CC1=C(C(=O)O)N2C(=O)[C@@H](NC(=O)[C@H](N)c3ccccc3)[C@H]2SC1 [CEPHALEXIN ANHYDROUS] | Not Active | Not Active

Test system: not listed separately
Experiment: DRUGMATRIX: Interleukin IL-1 radioligand binding (ligand: [125I] interleukin 1beta)
Assay type: cell membranes, Membrane
Settings: nih3t3; Not Active = under 50% inhibition at 10 µM

Row | Compound | IC50 | Ki
28 | CN1C(=O)COc2c(C(=O)NC3CN4CCC3CC4)cc(Cl)cc21 (stereo not given) [AZASETRON] | Not Active | Not Active
29 | C[C@H]1C[C@H]2[C@@H]3CCC4=CC(=O)C=C[C@]4(C)[C@@]3(Cl)[C@@H](O)C[C@]2(C)[C@@]1(O)C(=O)CO [BECLOMETHASONE] | Not Active | Not Active
30 | CCOC(=O)[C@H](CCc1ccccc1)N[C@H]1CCc2ccccc2N(CC(=O)O)C1=O [BENAZEPRIL] | Not Active | Not Active
31 | Nc1c(CC(=O)O)cccc1C(=O)c1ccc(Br)cc1 [BROMFENAC] | Not Active | Not Active
32 | CCCCN1CCCCC1C(=O)Nc1c(C)cccc1C.Cl (stereo not given) [BUPIVACAINE HYDROCHLORIDE] | Not Active | Not Active
33 | O=C1CC2(CCCC2)CC(=O)N1CCCCN1CCN(c2ncccn2)CC1 [BUSPIRONE] | Not Active | Not Active
34 | C[C@@]12C(=O)OC(=O)[C@]1(C)[C@H]1CC[C@@H]2O1 [CANTHARIDIN] | Not Active | Not Active
35 | O=NN(CCCl)C(=O)NCCCl [CARMUSTINE] | Not Active | Not Active
36 | CC1=C(C(=O)O)N2C(=O)[C@@H](NC(=O)[C@H](N)c3ccccc3)[C@H]2SC1 [CEPHALEXIN ANHYDROUS] | Not Active | Not Active

Target: Acetylcholinesterase (Homo sapiens, UniProt P22303)
Experiment: DRUGMATRIX: Acetylcholinesterase enzyme inhibition (substrate: acetylthiocholine)
Assay type: cell-based, HEK293
Settings: hek293; Not Active = under 50% inhibition at 10 µM

Acetylcholinesterase, sequence (P22303 whole entry): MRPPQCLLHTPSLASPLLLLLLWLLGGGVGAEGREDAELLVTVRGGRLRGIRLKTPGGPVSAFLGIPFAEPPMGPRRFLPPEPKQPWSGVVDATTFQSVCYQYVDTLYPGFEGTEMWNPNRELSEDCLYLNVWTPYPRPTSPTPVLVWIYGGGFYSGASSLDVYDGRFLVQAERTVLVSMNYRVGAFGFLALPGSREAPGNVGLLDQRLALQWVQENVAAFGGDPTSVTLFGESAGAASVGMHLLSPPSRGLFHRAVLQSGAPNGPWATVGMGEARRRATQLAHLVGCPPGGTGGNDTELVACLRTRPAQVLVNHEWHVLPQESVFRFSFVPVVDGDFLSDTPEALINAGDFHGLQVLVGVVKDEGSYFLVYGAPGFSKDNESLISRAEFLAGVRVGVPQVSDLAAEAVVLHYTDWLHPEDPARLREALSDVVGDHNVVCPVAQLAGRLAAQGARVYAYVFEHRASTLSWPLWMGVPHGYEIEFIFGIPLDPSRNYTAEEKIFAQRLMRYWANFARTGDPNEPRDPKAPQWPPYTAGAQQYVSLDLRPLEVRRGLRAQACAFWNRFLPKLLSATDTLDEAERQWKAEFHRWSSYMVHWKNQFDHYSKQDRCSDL

Row | Compound | IC50
37 | CN1C(=O)COc2c(C(=O)NC3CN4CCC3CC4)cc(Cl)cc21 (stereo not given) [AZASETRON] | Not Active
38 | C[C@H]1C[C@H]2[C@@H]3CCC4=CC(=O)C=C[C@]4(C)[C@@]3(Cl)[C@@H](O)C[C@]2(C)[C@@]1(O)C(=O)CO [BECLOMETHASONE] | Not Active
39 | CCOC(=O)[C@H](CCc1ccccc1)N[C@H]1CCc2ccccc2N(CC(=O)O)C1=O [BENAZEPRIL] | Not Active
40 | Nc1c(CC(=O)O)cccc1C(=O)c1ccc(Br)cc1 [BROMFENAC] | Not Active
41 | CCCCN1CCCCC1C(=O)Nc1c(C)cccc1C.Cl (stereo not given) [BUPIVACAINE HYDROCHLORIDE] | Not Active
42 | O=C1CC2(CCCC2)CC(=O)N1CCCCN1CCN(c2ncccn2)CC1 [BUSPIRONE] | Not Active
43 | C[C@@]12C(=O)OC(=O)[C@]1(C)[C@H]1CC[C@@H]2O1 [CANTHARIDIN] | Not Active
44 | O=NN(CCCl)C(=O)NCCCl [CARMUSTINE] | Not Active
45 | CC1=C(C(=O)O)N2C(=O)[C@@H](NC(=O)[C@H](N)c3ccccc3)[C@H]2SC1 [CEPHALEXIN ANHYDROUS] | Not Active

Target: T1, Alpha-2C adrenergic receptor (Homo sapiens, UniProt P18825)
T1 sequence (P18825 whole entry): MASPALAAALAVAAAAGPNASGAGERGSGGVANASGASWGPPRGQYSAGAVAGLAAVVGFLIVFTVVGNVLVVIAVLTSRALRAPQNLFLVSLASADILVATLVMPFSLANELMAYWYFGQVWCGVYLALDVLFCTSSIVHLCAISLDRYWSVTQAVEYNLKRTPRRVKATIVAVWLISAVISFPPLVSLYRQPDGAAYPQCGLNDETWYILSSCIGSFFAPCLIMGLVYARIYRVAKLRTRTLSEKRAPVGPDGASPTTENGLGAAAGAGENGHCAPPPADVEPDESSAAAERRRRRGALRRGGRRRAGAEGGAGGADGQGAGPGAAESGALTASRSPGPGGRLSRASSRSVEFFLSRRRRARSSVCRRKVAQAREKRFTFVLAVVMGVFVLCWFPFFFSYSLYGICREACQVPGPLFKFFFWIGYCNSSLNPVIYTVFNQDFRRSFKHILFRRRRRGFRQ
Experiment: DRUGMATRIX: Adrenergic Alpha-2C radioligand binding (ligand: [3H] MK-912)
Assay type: cell membranes, Sf9, Membrane
Settings: sf9

Row | Compound | IC50
46 | CN1C(=O)COc2c(C(=O)NC3CN4CCC3CC4)cc(Cl)cc21 (stereo not given) [AZASETRON] | Not Active
47 | C[C@H]1C[C@H]2[C@@H]3CCC4=CC(=O)C=C[C@]4(C)[C@@]3(Cl)[C@@H](O)C[C@]2(C)[C@@]1(O)C(=O)CO [BECLOMETHASONE] | Not Active
48 | CCOC(=O)[C@H](CCc1ccccc1)N[C@H]1CCc2ccccc2N(CC(=O)O)C1=O [BENAZEPRIL] | Not Active
49 | Nc1c(CC(=O)O)cccc1C(=O)c1ccc(Br)cc1 [BROMFENAC] | Not Active
50 | CCCCN1CCCCC1C(=O)Nc1c(C)cccc1C.Cl (stereo not given) [BUPIVACAINE HYDROCHLORIDE] | Not Active
51 | O=C1CC2(CCCC2)CC(=O)N1CCCCN1CCN(c2ncccn2)CC1 [BUSPIRONE] | Not Active
52 | C[C@@]12C(=O)OC(=O)[C@]1(C)[C@H]1CC[C@@H]2O1 [CANTHARIDIN] | Not Active
53 | O=NN(CCCl)C(=O)NCCCl [CARMUSTINE] | Not Active
54 | CC1=C(C(=O)O)N2C(=O)[C@@H](NC(=O)[C@H](N)c3ccccc3)[C@H]2SC1 [CEPHALEXIN ANHYDROUS] | Not Active

Target: Protein phosphatase 3 catalytic subunit alpha (Homo sapiens, UniProt Q08209);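 also: inhibition of calcineurin (PP2B) enzyme activity, measured with DiFMUP as the substrate; in other assays of this panel Not Active means under 50% inhibition at 10 µM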
Design: species or system Escherichia coli
Settings: not given

Row | Compound | IC50
55 | CN1C(=O)COc2c(C(=O)NC3CN4CCC3CC4)cc(Cl)cc21 (stereo not given) [AZASETRON] | Not Active
56 | C[C@H]1C[C@H]2[C@@H]3CCC4=CC(=O)C=C[C@]4(C)[C@@]3(Cl)[C@@H](O)C[C@]2(C)[C@@]1(O)C(=O)CO [BECLOMETHASONE] | Not Active
57 | CCOC(=O)[C@H](CCc1ccccc1)N[C@H]1CCc2ccccc2N(CC(=O)O)C1=O [BENAZEPRIL] | Not Active
58 | Nc1c(CC(=O)O)cccc1C(=O)c1ccc(Br)cc1 [BROMFENAC] | Not Active
59 | CCCCN1CCCCC1C(=O)Nc1c(C)cccc1C.Cl (stereo not given) [BUPIVACAINE HYDROCHLORIDE] | Not Active
60 | O=C1CC2(CCCC2)CC(=O)N1CCCCN1CCN(c2ncccn2)CC1 [BUSPIRONE] | Not Active
61 | C[C@@]12C(=O)OC(=O)[C@]1(C)[C@H]1CC[C@@H]2O1 [CANTHARIDIN] | Not Active
62 | O=NN(CCCl)C(=O)NCCCl [CARMUSTINE] | Not Active
63 | CC1=C(C(=O)O)N2C(=O)[C@@H](NC(=O)[C@H](N)c3ccccc3)[C@H]2SC1 [CEPHALEXIN ANHYDROUS] | Not Active
